Test results: PubChem BioAssay AID248 (DTP/NCI, 2004)
Inconclusive results and toxic doses are left out. Rule as the data show it: active = T/C of 150% or more; inactive = T/C below 125%.

Tested on: L1210 leukemia ip in BDF1 mice, survival T/C
Experiment: NCI In Vivo Anticancer Drug Screen. Data for tumor model L1210 Leukemia (intraperitoneal) in B6D2F1 (BDF1) mice
Conditions: endpoint: mean survival time, higher = longer survival
How it was run: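 Ratio derived from survival: compound-dosed mice over vehicle-dosed mice, all bearing a transplantable tumor.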

[1] = dose: 6.25 mg/kg/injection, schedule: Q01DX009 (ip), vehicle: saline
[2] = dose: 12.5 mg/kg/injection, schedule: Q01DX009 (ip), vehicle: saline
[3] = dose: 12.5 mg/kg/injection, schedule: Q04DX003 (ip), vehicle: saline
[4] = dose: 100.0 mg/kg/injection, schedule: Q01DX009 (ip), vehicle: Klucel (hydroxypropylcellulose) (HPC)
[5] = dose: 100.0 mg/kg/injection, schedule: Q04DX003 (ip), vehicle: Klucel (hydroxypropylcellulose) (HPC)
[6] = dose: 200.0 mg/kg/injection, schedule: Q01DX009 (ip), vehicle: Klucel (hydroxypropylcellulose) (HPC)
[7] = dose: 200.0 mg/kg/injection, schedule: Q04DX003 (ip), vehicle: Klucel (hydroxypropylcellulose) (HPC)
[8] = dose: 400.0 mg/kg/injection, schedule: Q01DX009 (ip), vehicle: Klucel (hydroxypropylcellulose) (HPC)
[9] = dose: 400.0 mg/kg/injection, schedule: Q04DX003 (ip), vehicle: Klucel (hydroxypropylcellulose) (HPC)
[10] = dose: 200.0 mg/kg/injection, schedule: Q01DX001 (ip), vehicle: Klucel (hydroxypropylcellulose) (HPC)
[11] = dose: 400.0 mg/kg/injection, schedule: Q01DX001 (ip), vehicle: Klucel (hydroxypropylcellulose) (HPC)
[12] = dose: 25.0 mg/kg/injection, schedule: Q01DX009 (ip), vehicle: Klucel (hydroxypropylcellulose) (HPC)
[13] = dose: 50.0 mg/kg/injection, schedule: Q01DX009 (ip), vehicle: Klucel (hydroxypropylcellulose) (HPC)

Measured: T/C

Cc1ccc(S(=O)(=O)NC(CCl)=NC2CCCCC2)cc1
inactive: dose: 100.0 mg/kg/injection, schedule: Q04DX002 (ip), vehicle: Klucel (hydroxypropylcellulose) (HPC) 96 % of control | dose: 200.0 mg/kg/injection, schedule: Q04DX002 (ip), vehicle: Klucel (hydroxypropylcellulose) (HPC) 100 % of control | dose: 400.0 mg/kg/injection, schedule: Q04DX002 (ip), vehicle: Klucel (hydroxypropylcellulose) (HPC) 103 % of control

COc1ccccc1/C=C/C(=O)N1CCC2(CC1)C(=O)N(C)CN2c1ccccc1
inactive: dose: 75.0 mg/kg/injection, schedule: Q04DX003 (ip), vehicle: Klucel (hydroxypropylcellulose) (HPC) 96 % of control | dose: 150.0 mg/kg/injection, schedule: Q04DX003 (ip), vehicle: Klucel (hydroxypropylcellulose) (HPC) 86 % of control | dose: 300.0 mg/kg/injection, schedule: Q04DX003 (ip), vehicle: Klucel (hydroxypropylcellulose) (HPC) 91 % of control

Nc1nc[nH]c(=O)c1NC=O
inactive: dose: 100.0 mg/kg/injection, schedule: Q01DX009 (ip), vehicle: saline 94 % of control | dose: 100.0 mg/kg/injection, schedule: Q04DX003 (ip), vehicle: saline with Tween-80 97 % of control | dose: 200.0 mg/kg/injection, schedule: Q01DX009 (ip), vehicle: saline 100 % of control | dose: 200.0 mg/kg/injection, schedule: Q04DX003 (ip), vehicle: saline with Tween-80 98 % of control | dose: 400.0 mg/kg/injection, schedule: Q01DX009 (ip), vehicle: saline 104 % of control | dose: 400.0 mg/kg/injection, schedule: Q04DX003 (ip), vehicle: saline with Tween-80 101 % of control

CC(=O)N1C(=O)NC(=O)C1(CSCc1ccccc1)CSCc1ccccc1
inactive: dose: 50.0 mg/kg/injection, schedule: Q01DX005 (ip), vehicle: saline 104 % of control | dose: 100.0 mg/kg/injection, schedule: Q01DX005 (ip), vehicle: saline 98 % of control | dose: 200.0 mg/kg/injection, schedule: Q01DX005 (ip), vehicle: saline 110 % of control | dose: 400.0 mg/kg/injection, schedule: Q01DX005 (ip), vehicle: saline 94 % of control

C[n+]1ccc(C#N)c2ccccc21
inactive: dose: 1.56 mg/kg/injection, schedule: Q01DX009 (ip), vehicle: saline 96 % of control | dose: 3.12 mg/kg/injection, schedule: Q01DX009 (ip), vehicle: saline 98 % of control | [1] 106 % of control | [2] 98 % of control | [3] 101 % of control

CCC(=O)C(CC)c1ccc(OC)cc1OC (stereo not drawn)
inactive: [4] 93 % of control | [5] 103 % of control | [6] 95 % of control | [7] 101 % of control | [8] 98 % of control | [9] 103 % of control

COC(=O)c1cccc(Nc2ccccc2C(=O)O)c1
inactive: dose: 100.0 mg/kg/injection, schedule: Q01DX001 (ip), vehicle: Klucel (hydroxypropylcellulose) (HPC) 102 % of control | [10] 96 % of control | [11] 93 % of control

CC(C)(C(=O)O)c1ccccc1
inactive: dose: 100.0 mg/kg/injection, schedule: Q01DX001 (ip), vehicle: saline with Tween-80 96 % of control | dose: 200.0 mg/kg/injection, schedule: Q01DX001 (ip), vehicle: saline with Tween-80 96 % of control | dose: 400.0 mg/kg/injection, schedule: Q01DX001 (ip), vehicle: saline with Tween-80 96 % of control

CC(C)(C)C1(O)CCCCC1
inactive: [4] 99 % of control | [5] 98 % of control | [6] 92 % of control | [7] 100 % of control | [8] 92 % of control | [9] 98 % of control

CC(C)CC(N)C(=O)NCCCl (stereo not drawn)
inactive: dose: 30.0 mg/kg/injection, schedule: Q01DX Z (ip), vehicle: saline 88 % of control | dose: 100.0 mg/kg/injection, schedule: Q01DX Z (ip), vehicle: saline 102 % of control | dose: 300.0 mg/kg/injection, schedule: Q01DX Z (ip), vehicle: saline 88 % of control

Cc1ccc(C2NC(=S)N3C(c4ccc(C)cc4)NC(=S)N23)cc1 (stereo not drawn)
inactive: dose: 100.0 mg/kg/injection, schedule: Q01DX009 (ip), vehicle: gum acacia 105 % of control | dose: 100.0 mg/kg/injection, schedule: Q04DX003 (ip), vehicle: gum acacia 95 % of control | dose: 200.0 mg/kg/injection, schedule: Q01DX009 (ip), vehicle: gum acacia 100 % of control | dose: 200.0 mg/kg/injection, schedule: Q04DX003 (ip), vehicle: gum acacia 90 % of control | dose: 400.0 mg/kg/injection, schedule: Q01DX009 (ip), vehicle: gum acacia 91 % of control | dose: 400.0 mg/kg/injection, schedule: Q04DX003 (ip), vehicle: gum acacia 95 % of control

Cc1ccc(Nc2ccc(Nc3ccc(C)cc3)c3c2C(=O)c2c(O)ccc(O)c2C3=O)cc1
inactive: [10] 90 % of control | [11] 97 % of control

CCC(=O)c1ccc(NC(C)=O)cc1
inactive: [4] 100 % of control | [5] 99 % of control | [6] 100 % of control | [7] 96 % of control | [8] 103 % of control | [9] 96 % of control

CC1(C)CCS1(=O)=O
inactive: dose: 100.0 mg/kg/injection, schedule: Q04DX002 (ip), vehicle: saline 100 % of control | dose: 200.0 mg/kg/injection, schedule: Q04DX002 (ip), vehicle: saline 100 % of control | dose: 400.0 mg/kg/injection, schedule: Q04DX002 (ip), vehicle: saline 100 % of control

O=[N+]([O-])c1ccc2nccc(Cl)c2c1
inactive: [12] 97 % of control | [13] 92 % of control | [5] 95 % of control

CCN(CC)CCCOC(=O)/C=C/c1c(C)[nH]c(=O)[nH]c1=O
inactive: [1] 106 % of control | [2] 97 % of control | [3] 102 % of control | dose: 25.0 mg/kg/injection, schedule: Q01DX009 (ip), vehicle: saline 96 % of control | dose: 25.0 mg/kg/injection, schedule: Q04DX003 (ip), vehicle: saline 103 % of control | dose: 50.0 mg/kg/injection, schedule: Q01DX009 (ip), vehicle: saline 103 % of control | dose: 50.0 mg/kg/injection, schedule: Q04DX003 (ip), vehicle: saline 116 % of control

C1=Cc2ccccc2/C1=C/c1ccccc1
inactive: dose: 100.0 mg/kg/injection, schedule: Q01DX001 (ip), vehicle: other 97 % of control | dose: 200.0 mg/kg/injection, schedule: Q01DX001 (ip), vehicle: other 95 % of control | dose: 400.0 mg/kg/injection, schedule: Q01DX001 (ip), vehicle: other 92 % of control

c1ccc(CC2NCCc3c2[nH]c2ccccc32)cc1 (stereo not drawn)
inactive: [12] 104 % of control | dose: 25.0 mg/kg/injection, schedule: Q04DX003 (ip), vehicle: Klucel (hydroxypropylcellulose) (HPC) 92 % of control | [13] 103 % of control | [4] 93 % of control | [5] 89 % of control | [6] 108 % of control | [7] 97 % of control | [9] 97 % of control

Cc1cc(O)ccc1C1=[N+](C)CC(C)S1 (stereo not drawn)
inactive: dose: 12.5 mg/kg/injection, schedule: Q04DX002 (ip), vehicle: saline 103 % of control | dose: 25.0 mg/kg/injection, schedule: Q04DX002 (ip), vehicle: saline 100 % of control | dose: 50.0 mg/kg/injection, schedule: Q04DX002 (ip), vehicle: saline 103 % of control
